Results taken from PubChem BioAssay (NCI).
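Values below derive from 48-hour exposures of cells grown in 96-well plates, with endpoints linearly interpolated between the two concentrations bracketing the appropriate inhibition level. The concentration for 50% growth inhibition is given as GI50. TGI denotes the concentration required for complete inhibition of growth.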

Legend:
Assay in all cases: DTP human tumour cell line panel, 48 h
HCC-2998 colon = tested on: HCC-2998 colon
HCT-15 colon = tested on: HCT-15 colon
HL-60(TB) leukemia = tested on: HL-60(TB) leukemia
HOP-92 NSCLC = tested on: HOP-92 NSCLC
HS 578T breast = tested on: HS 578T breast
HT29 colon = tested on: HT29 colon
KM12 colon = tested on: KM12 colon
SF-539 CNS = tested on: SF-539 CNS
SN12C renal = tested on: SN12C renal
UACC-257 melanoma = tested on: UACC-257 melanoma

Row | SMILES | TGI (HCC-2998 colon) [µM] | TGI (HCT-15 colon) [µM] | TGI (HL-60(TB) leukemia) [µM] | TGI (HOP-92 NSCLC) [µM] | TGI (HS 578T breast) [µM] | TGI (HT29 colon) [µM] | TGI (KM12 colon) [µM] | TGI (SF-539 CNS) [µM] | TGI (SN12C renal) [µM] | TGI (UACC-257 melanoma) [µM] | GI50 (HCC-2998 colon) [µM] | GI50 (HCT-15 colon) [µM] | GI50 (HL-60(TB) leukemia) [µM] | GI50 (HOP-92 NSCLC) [µM] | GI50 (HS 578T breast) [µM] | GI50 (HT29 colon) [µM] | GI50 (KM12 colon) [µM] | GI50 (SF-539 CNS) [µM] | GI50 (SN12C renal) [µM] | GI50 (UACC-257 melanoma) [µM]
1 | CC(C)=CC1CC(C)C2(CCC3(C)CC4C(C(=O)CC4(C)O)/C(C=O)=C\CC32)O1 (stereo not given) | 0.328 | 0.105 | 0.0576 | 0.2 | 0.421 | 0.102 | 0.262 | 0.239 | 0.184 | 0.28 |  |  |  |  |  |  |  |  |  | 
2 | CNCCOC(=O)/C=C1/CCC2C(C(O)CC3C(C)(C(=O)OC)CCCC23C)C1C (stereo not given) | 0.115 | 0.0654 | 0.0638 | 0.0764 | 0.298 | 0.0473 | 0.111 | 0.0408 | 0.112 | 0.0512 | 0.0329 | 0.0258 | 0.0261 | 0.0243 | < 0.01 | 0.0231 | 0.0339 | 0.0206 | < 0.01 | 0.0226
3 | CC1(C)Cc2c(Br)c(Br)c(Br)c(OCC(O)CN3CCOCC3)c2O1 (stereo not given) | 28.8 | 26.8 | 17.9 | 21.5 | 47.4 | 19 | 28.9 | 26 | 33.5 | 37.8 | 14.1 | 13.7 | 3.72 | 3.76 | 17.2 | 3.73 | 13.4 | 12.5 | 17.4 | 19.1
4 | COc1ccc(-c2ccccc2)cc1-c1c(Nc2cc(Cl)cc(Cl)c2O)c(=O)c1=O | > 50 | > 50 | 2.54 | 2.81 | 4.55 | > 50 | > 50 | > 50 | > 50 | 4.77 | 1.78 | 1.5 | 1.11 | 0.929 | 1.25 | 1.92 | 1.53 | 1.59 | 1.48 | 1.44
5 | COc1cc(-c2n/c(=C\c3c(O)[nH]c4ccccc34)cc3c2=Nc2ccccc2-3)cc(OC)c1OC | 6.48 | > 100 | 5.03 | 6.28 | 68 | 2.53 | 16.4 | 7.83 | > 100 | > 100 | 2.32 | 1.72 | 2.16 | 0.385 | 0.418 | 0.407 | 2.03 | 0.783 | 0.523 | 1.73
6 | Cc1ccc(/C(=C/C=C(C#N)C#N)Sc2ccccn2)cc1 | 8.84 | 15.8 | 3.72 | 31.7 | 8.32 | 8.41 | 20.2 | 6.44 | 4.72 | 28.1 | 3.85 | 4.09 | 0.328 | 12.6 | 2.46 | 2.89 | 3.33 | 2.08 | 1.91 | 14.6
7 | Cc1cc2nc3c4cccc(O)c4n(CCN(C)C)c3nc2cc1C | 2.99 | 3.79 | 4.13 | 7.58 | 31.8 | 20 | 4.17 | 3.23 | 13.8 | 4.58 | 1.46 | 1.29 | 1.57 | 1.57 | 3.32 | 2.81 | 1.65 | 1.51 | 2.28 | 2
8 | Cc1ccc(F)cc1NC(=O)c1cc(Cl)ccc1Nc1ccccc1 | > 100 | > 100 | > 100 | > 100 | > 100 | > 100 | > 100 | > 100 | > 100 | > 100 | > 100 | > 100 | > 100 | 32 | 36.1 | > 100 | > 100 | 40.7 | > 100 | > 100
